# US20170088545A1, “CARBOXAMIDE INHIBITORS” (Norvartis AG, priority 2014, published 2017)
# What was measured:
# Smurf-1 = Smurf-1 (Homo sapiens, UniProt Q9HCE7); assay: HECT E3 ligase autoubiquitinylation TR-FRET assay, Smurf-1; format: biochemical; details: 45 min incubation, 8-point dose-response
# Source text: (§1) To determine the HECT E3 ligase selectivity of the compounds, a panel of biochemical HECT E3 ligase autoubiquitinylation assays was employed (Smurf-1, Smurf-2, WWP1, WWP2, ITCH, Nedd4, Nedd4L and E6AP). The conjugation of ubiquitin to a protein substrate is a multistep process. In an initial ATP-requiring step, a thioester bond is formed between the carboxyl terminus of ubiquitin and an internal cystein residue of the ubiquitin-activating enzyme (E1). Activated ubiquitin is then transferred to a specific cystein residue of an ubiquitin-conjugating enzyme (E2). E2s donate ubiquitin to a HECT E3 ligase (E3) from which it is transferred to the substrate protein. HECT E3 ligases can auto-ubiquitinylate. This event is detected in the TR-FRET (Time-Resolved Fluorescence Resonance Energy Transfer) assay used in this panel. The reaction mix contains E1, E2, tagged-E3, biotin-conjugated ubiquitin, the compound and ATP in a suitable buffer and is incubated for 45 minutes to allow auto-ubiquitinylation of the E3 ligase. To measure the extent of ubiquitinylated E3 ligase by TR-FRET, the donor fluorophore Europium cryptate (Eu3+ cryptate), conjugated to streptavidin which subsequently binds to biotinylated ubiquitin, and the modified allophycocyanin XL665 (HTRF® primary acceptor fluorophore) coupled to a tag-specific antibody (HA, His or GST), which recognizes the respective E3 ligase fusion proteins, are added after the reaction is complete. When these two fluorophores are brought together by a biomolecular interaction (in this case ubiquitinylation of the E3 ligase), a portion of the energy captured by the Cryptate during excitation is released through fluorescence emission at 620 nm, while the remaining energy is transferred to XL665. This energy is then released by XL665 as specific fluorescence at 665 nm. Light at 665 nm is emitted only through FRET with Europium.
# (§2) Test and reference compounds are prepared at 180× [final] in 90% DMSO, and diluted 1:3 in 90% DMSO.
# (§3) For the biochemical assay panel, 50 nl of the test compounds, reference compounds and buffer/DMSO control are transferred to the respective wells of a 384-well white GREINER “SMALL VOLUME” PS plate. The assay panel is run at room temperature on a Biomek FX liquid handling workstation. To the assay plates containing 50 nl compound or control solutions in 90% DMSO, 4.5 ul of E3 ligase solution were added per well, followed by 4.5 ul of the pre-incubated E1/E2/Ub mix or the pre-diluted ubiquitin (LOW control). Plates are shaken vigorously after each addition. In this assay the compound concentrations range from 3 nM to 10 uM in an 8-point dose-response curve.
# (§4) After 45 min of incubation the ubiquitinylation reactions were stopped by adding 4.5 ul 2 mM NEM, immediately followed by 4.5 ul of a detection solution including the XL665-labeled antibody and the streptavidin-coupled europium to give a total volume of 18 ul. After an incubation time of 45 min in the dark, the plates are transferred into the Pherastar fluorescence reader to measure the TR-FRET signal.
# Smurf-2 = Smurf-2 (Homo sapiens, UniProt Q9HAU4); assay: HECT E3 ligase autoubiquitinylation TR-FRET assay, Smurf-2; format: biochemical; details: 45 min incubation, 8-point dose-response
# Sequence of Smurf-2 (Q9HAU4 whole entry, species assumed): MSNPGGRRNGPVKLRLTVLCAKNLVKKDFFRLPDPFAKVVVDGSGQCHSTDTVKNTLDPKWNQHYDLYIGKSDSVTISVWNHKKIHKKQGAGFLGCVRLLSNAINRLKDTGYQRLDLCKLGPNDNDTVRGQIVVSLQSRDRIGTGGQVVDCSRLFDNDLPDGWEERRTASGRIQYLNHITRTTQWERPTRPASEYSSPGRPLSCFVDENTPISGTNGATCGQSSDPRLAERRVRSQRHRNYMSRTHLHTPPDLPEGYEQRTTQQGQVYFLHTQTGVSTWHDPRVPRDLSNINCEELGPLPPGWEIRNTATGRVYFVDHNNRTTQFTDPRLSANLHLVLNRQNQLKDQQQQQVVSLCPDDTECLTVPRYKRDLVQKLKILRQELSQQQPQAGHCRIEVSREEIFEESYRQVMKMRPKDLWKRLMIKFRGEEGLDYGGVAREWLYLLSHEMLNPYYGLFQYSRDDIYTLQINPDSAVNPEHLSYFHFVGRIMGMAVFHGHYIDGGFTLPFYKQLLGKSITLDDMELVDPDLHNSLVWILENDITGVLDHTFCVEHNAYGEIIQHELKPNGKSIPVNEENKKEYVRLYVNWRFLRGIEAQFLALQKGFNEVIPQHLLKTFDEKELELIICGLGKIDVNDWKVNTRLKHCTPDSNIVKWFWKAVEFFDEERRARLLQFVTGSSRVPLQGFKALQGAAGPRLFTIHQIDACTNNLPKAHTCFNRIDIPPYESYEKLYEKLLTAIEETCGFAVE
# Source text: as §1, §2, §3, §4
# Sequence of Smurf-1 (Q9HCE7 whole entry): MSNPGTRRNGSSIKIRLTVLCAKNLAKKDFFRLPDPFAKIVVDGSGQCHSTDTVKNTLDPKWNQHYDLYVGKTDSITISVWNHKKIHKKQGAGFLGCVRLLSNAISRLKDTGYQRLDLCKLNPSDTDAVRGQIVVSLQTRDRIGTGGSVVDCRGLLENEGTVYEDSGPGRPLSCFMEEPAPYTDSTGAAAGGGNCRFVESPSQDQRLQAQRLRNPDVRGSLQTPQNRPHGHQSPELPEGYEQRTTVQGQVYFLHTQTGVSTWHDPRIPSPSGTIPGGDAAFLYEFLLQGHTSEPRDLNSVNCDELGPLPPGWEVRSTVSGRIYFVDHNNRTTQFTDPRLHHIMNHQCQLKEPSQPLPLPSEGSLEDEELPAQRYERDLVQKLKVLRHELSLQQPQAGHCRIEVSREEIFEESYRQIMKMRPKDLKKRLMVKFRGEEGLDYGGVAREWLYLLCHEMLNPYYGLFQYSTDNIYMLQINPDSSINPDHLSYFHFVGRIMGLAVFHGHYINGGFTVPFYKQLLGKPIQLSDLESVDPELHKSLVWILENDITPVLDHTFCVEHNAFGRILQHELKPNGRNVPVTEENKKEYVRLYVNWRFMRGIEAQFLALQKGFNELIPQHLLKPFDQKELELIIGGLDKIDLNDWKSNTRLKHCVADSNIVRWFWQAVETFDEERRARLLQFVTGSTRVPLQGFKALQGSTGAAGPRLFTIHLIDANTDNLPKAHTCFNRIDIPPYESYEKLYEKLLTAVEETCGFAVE
IC50 (Smurf-1) [nM],IC50 (Smurf-2) [nM],SMILES
41.5,> 20200,"COCc1ccc(-c2onc(C(=O)Nc3c(C)n(C)n(C4CCCCC4)c3=O)c2C)c(Cl)c1 [Example 47, 5-(2-Chloro-4-(methoxymethyl)phenyl)-N-(2-cyclohexyl-1,5-dimethyl-3-oxo-2,3-dihydro-1H-pyrazol-4-yl)-4-methylisoxazole-3-carboxamide]"
7.7,2400,"COc1ccc(-c2onc(C(=O)Nc3c(C)n(C)n(C4CCCCC4)c3=O)c2C)cc1C [Example 048, N-(2-Cyclohexyl-1,5-dimethyl-3-oxo-2,3-dihydro-1H-pyrazol-4-yl)-5-(4-methoxy-3-methylphenyl)-4-methylisoxazole-3-carboxamide]"
23.5,6750,"Cc1c(C(=O)Nc2c(C)n(C)n(C3CCCCC3)c2=O)noc1-c1ccc(Cl)cc1 [Example 049, 5-(4-Chlorophenyl)-N-(2-cyclohexyl-1,5-dimethyl-3-oxo-2,3-dihydro-1H-pyrazol-4-yl)-4-methylisoxazole-3-carboxamide]"
560,> 20100,"COc1ccccc1-c1onc(C(=O)Nc2c(C)n(C)n(C3CCCCC3)c2=O)c1C [Example 051, N-(2-Cyclohexyl-1,5-dimethyl-3-oxo-2,3-dihydro-1H-pyrazol-4-yl)-5-(2-methoxyphenyl)-4-methylisoxazole-3-carboxamide]"
10.8,5000,"Cc1c(C(=O)Nc2c(C)n(C)n(C3CCCCC3)c2=O)noc1-c1ccc2occc2c1 [Example 054, 5-(Benzofuran-5-yl)-N-(2-cyclohexyl-1,5-dimethyl-3-oxo-2,3-dihydro-1H-pyrazol-4-yl)-4-methylisoxazole-3-carboxamide]"
109,> 20200,"Cc1c(C(=O)Nc2c(C)n(C)n(C3CCCCC3)c2=O)noc1-c1cccc(F)c1F [Example 055, N-(2-Cyclohexyl-1,5-dimethyl-3-oxo-2,3-dihydro-1H-pyrazol-4-yl)-5-(2,3-difluorophenyl)-4-methylisoxazole-3-carboxamide]"
24,7500,"Cc1c(C(=O)Nc2c(C)n(C)n(C3CCCCC3)c2=O)noc1-c1ccc(Cl)cc1F [Example 057, 5-(4-Chloro-2-fluorophenyl)-N-(2-cyclohexyl-1,5-dimethyl-3-oxo-2,3-dihydro-1H-pyrazol-4-yl)-4-methylisoxazole-3-carboxamide]"
965,> 20200,"Cc1c(C(=O)Nc2c(C)n(C)n(-c3ccccc3F)c2=O)noc1-c1ccc2c(c1)CCO2 [Example 062, 5-(2,3-Dihydrobenzofuran-5-yl)-N-(2-(2-fluorophenyl)-1,5-dimethyl-3-oxo-2,3-dihydro-1H-pyrazol-4-yl)-4-methylisoxazole-3-carboxamide]"
5,3200,"Cc1c(C(=O)Nc2c(C)n(C)n(C3CCCCC3)c2=O)noc1-c1ccc(Cl)cc1C1CC1 [Example 069, 5-(4-Chloro-2-cyclopropylphenyl)-N-(2-cyclohexyl-1,5-dimethyl-3-oxo-2,3-dihydro-1H-pyrazol-4-yl)-4-methylisoxazole-3-carboxamide]"
33,17800,"COc1c(C)cccc1-c1onc(C(=O)Nc2c(C)n(C)n(C3CCCCC3)c2=O)c1C [Example 070, N-(2-Cyclohexyl-1 ,5-dimethyl-3-oxo-2,3-dihydro-1H-pyrazol-4-yl)-5-(2-methoxy-3-methylphenyl)-4-methylisoxazole-3-carboxamide]"
98,> 20200,"Cc1c(C(=O)Nc2c(C)n(C)n(C3CCCCC3)c2=O)noc1-c1ccc(OCC2CC2)cc1Cl [Example 072, 5-(2-Chloro-4-(cyclopropylmethoxy)phenyl)-N-(2-cyclohexyl-1,5-dimethyl-3-oxo-2,3-dihydro-1H-pyrazol-4-yl)-4-methylisoxazole-3-carboxamide]"
895,> 20200,"Cc1c(C(=O)Nc2c(C)n(C)n(C3CCCCC3)c2=O)noc1-c1cccc2c1OCCC2 [Example 075, 5-(Chroman-8-yl)-N-(2-cyclohexyl-1,5-dimethyl-3-oxo-2,3-dihydro-1H-pyrazol-4-yl)-4-methyl isoxazole-3-carboxamide]"
2300,> 20200,"Cc1cc(C)c(-c2onc(C(=O)Nc3c(C)n(C)n(-c4ccccc4F)c3=O)c2C)c(C)c1 [Example 083, N-(2-(2-fluorophenyl)-1,5-dimethyl-3-oxo-2,3-dihydro-1H-pyrazol-4-yl)-5-mesityl-4-methylisoxazole-3-carboxamide]"
7150,> 20200,"COc1ccccc1-c1onc(C(=O)Nc2c(C)n(C)n(-c3ccccc3F)c2=O)c1C [Example 084, N-(2-(2-fluorophenyl)-1,5-dimethyl-3-oxo-2,3-dihydro-1H-pyrazol-4-yl)-5-(2-methoxyphenyl)-4-methylisoxazole-3-carboxamide]"
50.5,> 20200,"COc1ccc(-c2onc(C(=O)Nc3c(C)n(C)n(C4CCCCC4)c3=O)c2C2CC2)c(C(F)(F)F)c1 [Example 085, N-(2-Cyclohexyl-1,5-dimethyl-3-oxo-2,3-dihydro-1H-pyrazol-4-yl)-4-cyclopropyl-5-(4-methoxy-2-(trifluoromethyl)phenyl)isoxazole-3-carboxamide]"
260,> 20200,"COc1ccc(-c2onc(C(=O)Nc3c(C)n(C)n(C4CCCCC4)c3=O)c2C2CC2)c(F)c1 [Example 086, N-(2-Cyclohexyl-1,5-dimethyl-3-oxo-2,3-dihydro-1H-pyrazol-4-yl)-4-cyclopropyl-5-(2-fluoro-4-methoxyphenyl) isoxazole-3-carboxamide]"
